PMC12037858 (Scientific Reports, 2025)

Target: Fascin (Homo sapiens, UniProt Q16658)
Assay: Image-based F-actin bundling assay
Type: biochemical
Settings: 400 µM compound

In the case of `O=C(Nc1ccncc1)c1cn(Cc2ccc(Cl)c(Cl)c2)c(=O)c2cnn(C3CCNCC3)c12` [BDP-13176], the “Inhibition of fascin-mediated F-actin bundle formation” value is reported as “prevents fiber formation”.
